# Earlier results in patent US20220211661A1, “GREEN TEA CATECHINS EUTECTIC SYSTEM” (ASSISTANCE PUBLIQUE - HOPITAUX DE PARIS, priority 2019, published 2022).
# Conditions: after 1-h ultra violet irradiation
substance,measurement,value
(-)-epigallocatechin-3-gallate [EGCG],EGCG decomposed,70%
